Results from US20130184227A1, “Cytochrome P450 2C9 Inhibitors” (priority 2004, published 2013).

System: CYP2C9
Assay: in vitro
Conditions: Sprague-Dawley, rat, microsomes
[1] = pH 7.4, % inhibition of CYP2C9 activity
[2] = pH 7.4, % inhibition of CYP2C9 activity, test article 1 μM, tolbutamide 1 mM, rat liver microsomes
[3] = pH 7.4, % inhibition of CYP2C9 activity, test article 10 μM, tolbutamide 1 mM, rat liver microsomes
[4] = pH 7.4, % inhibition of CYP2C9 activity, test article 100 μM, tolbutamide 1 mM, rat liver microsomes

CC(Cc1ccc(O)c(O)c1)C(C)Cc1ccc(O)c(O)c1 (stereo not drawn) [Nordihydroguaiaretic acid]
inhibition at 7.5 min, 1 μM [1]: -16.1% | inhibition at 7.5 min, 10 μM [1]: 9.76% | inhibition at 7.5 min, 100 μM [1]: 81.2%

O=c1c(-c2ccc(O)cc2)coc2c([C@@H]3O[C@H](CO)[C@@H](O)[C@H](O)[C@H]3O)c(O)ccc12 [Puerarin]
inhibition at 7.5 min, 1 μM [1]: 38.1% | inhibition at 7.5 min, 10 μM [1]: 39% | inhibition at 7.5 min, 100 μM [1]: 33.3%

O=c1c(O)c(-c2ccc(O)c(O)c2)oc2cc(O)cc(O)c12 [quercetin]
inhibition at 7.5 min, 1 μM (pH 7.4): 15.1% | inhibition at 7.5 min, 10 μM (pH 7.4): 44.8% | inhibition at 7.5 min, 100 μM (pH 7.4): 91.9%

O=c1cc(-c2ccc(O)c(O)c2)oc2cc(O)cc(O)c12 [luteolin]
inhibition at 7.5 min, 1 μM [1]: 20.1% | inhibition at 7.5 min, 10 μM [1]: 37.9% | inhibition at 7.5 min, 100 μM [1]: 93.2%

O=c1cc(-c2ccccc2)oc2cc(O)cc(O)c12 [Chrysin]
inhibition at 7.5 min, 1 μM (pH 7.4): 6.86% | inhibition at 7.5 min, 10 μM (pH 7.4): 60.6% | inhibition at 7.5 min, 50 μM (pH 7.4): 75.1%

O=c1ccc2ccc(O)cc2o1 [Umbelliferone]
inhibition at 7.5 min, 1 μM [1]: -7.17% | inhibition at 7.5 min, 10 μM [1]: -6.64% | inhibition at 7.5 min, 100 μM [1]: -2.02%

C[C@@H]1O[C@@H](OC[C@H]2O[C@@H](Oc3c(-c4ccc(O)c(O)c4)oc4cc(O)cc(O)c4c3=O)[C@H](O)[C@@H](O)[C@@H]2O)[C@H](O)[C@H](O)[C@H]1O [Rutin]
inhibition at 7.5 min, 1 μM [1]: -2.59% | inhibition at 7.5 min, 10 μM [1]: -14% | inhibition at 7.5 min, 100 μM [1]: -6.46%

O=c1cc(-c2ccc(O)cc2)oc2cc(O)c([C@@H]3O[C@H](CO)[C@@H](O)[C@H](O)[C@H]3O)c(O)c12 [isovitexin]
inhibition at 7.5 min, 1 μM [1]: 35.6% | inhibition at 7.5 min, 10 μM [1]: 37.4% | inhibition at 7.5 min, 100 μM [1]: 45.4%

COc1ccc(-c2cc(=O)c3c(O)cc(O[C@@H]4O[C@H](CO[C@@H]5O[C@@H](C)[C@H](O)[C@@H](O)[C@H]5O)[C@@H](O)[C@H](O)[C@H]4O)cc3o2)cc1O [Diosmin]
inhibition at 7.5 min, 1 μM [1]: 1.51% | inhibition at 7.5 min, 10 μM [1]: 4.7%

O=C(O)/C=C/c1ccccc1 [trans-cinnamic acid]
inhibition at 7.5 min, 1 μM [1]: 26.9% | inhibition at 7.5 min, 10 μM [1]: 15.8% | inhibition at 7.5 min, 100 μM [1]: 26.1%

O=c1cc(-c2ccc(O)cc2)oc2cc(O)cc(O)c12 [apigenin]
inhibition at 7.5 min, 2.5 μM [1]: 21.7% | inhibition at 7.5 min, 25 μM [1]: 76.9%

O=c1c(O[C@@H]2O[C@H](CO)[C@@H](O)[C@H](O)[C@H]2O)c(-c2ccc(O)c(O)c2)oc2cc(O)cc(O)c12 [isoquercitrin]
inhibition at 7.5 min, 1 μM [1]: 20.9% | inhibition at 7.5 min, 10 μM [1]: 27% | inhibition at 7.5 min, 100 μM [1]: 61.8%

C=C[C@H]1[C@H](O[C@@H]2O[C@H](CO)[C@@H](O)[C@H](O)[C@H]2O)OC=C2C(=O)OCC[C@]21O [Swertiamarin]
inhibition at 7.5 min, 1 μM [1]: 16.3% | inhibition at 7.5 min, 10 μM [1]: 16.6% | inhibition at 7.5 min, 100 μM [1]: 18.4%

O=C1C[C@@H](c2ccc(O[C@@H]3O[C@H](CO)[C@@H](O)[C@H](O)[C@H]3O)cc2)Oc2cc(O)ccc21 [Liquiritin]
inhibition at 7.5 min, 1 μM [1]: 18.1% | inhibition at 7.5 min, 10 μM [1]: 18.4% | inhibition at 7.5 min, 100 μM [1]: 24.8%

COc1ccc(-c2coc3cc(O)ccc3c2=O)cc1 [Formononetin]
inhibition at 7.5 min, 1 μM [1]: 23.3% | inhibition at 7.5 min, 10 μM [1]: 30.6% | inhibition at 7.5 min, 50 μM [1]: 57.9%

O=C(O)c1cc(O)c(O)c(O)c1 [gallic acid]
inhibition at 7.5 min, 1 μM [1]: -3.05% | inhibition at 7.5 min, 10 μM [1]: -2.47% | inhibition at 7.5 min, 100 μM [1]: -0.97%

CCCCCCCCCCCC1=C(O)C(=O)C=C(O)C1=O [Embelin]
inhibition at 7.5 min, 1 μM [1]: 24.7% | inhibition at 7.5 min, 10 μM [1]: 11.2% | inhibition at 7.5 min, 50 μM [1]: 18%

O=C1C[C@@H](c2ccc(O)c(O)c2)Oc2cc(O)cc(O)c21 [eriodictyol]
inhibition at 7.5 min, 1 μM [1]: 32.8% | inhibition at 7.5 min, 10 μM [1]: 28.6% | inhibition at 7.5 min, 100 μM [1]: 69.6%

O=C(CCc1ccc(O)cc1)c1c(O)cc(O)cc1O [Phloretin]
inhibition at 7.5 min, 1 μM [1]: 23.8% | inhibition at 7.5 min, 10 μM [1]: 34.4% | inhibition at 7.5 min, 100 μM [1]: 95.1%

O=c1c(O)c(-c2ccc(O)cc2O)oc2cc(O)cc(O)c12 [Morin]
inhibition at 7.5 min, 1 μM [1]: 14.3% | inhibition at 7.5 min, 10 μM [1]: 11.6% | inhibition at 7.5 min, 100 μM [1]: 51%

CC(C)[C@@H](C)/C=C/[C@@H](C)[C@H]1CC[C@H]2C3=CC=C4C[C@@H](O)CC[C@]4(C)[C@H]3CC[C@]12C [ergosterol]
inhibition at 7.5 min, 1 μM [1]: 1% | inhibition at 7.5 min, 10 μM [1]: 8.12% | inhibition at 7.5 min, 30 μM [1]: 3.57%

CC1(C)CC[C@]2(C(=O)O)CC[C@]3(C)C(=CC[C@@H]4[C@@]5(C)CC[C@H](O)C(C)(C)[C@@H]5CC[C@]43C)[C@@H]2C1 [Oleanolic acid]
inhibition at 7.5 min, 1 μM [2]: 16.8% | inhibition at 7.5 min, 10 μM [3]: 42.4% | inhibition at 7.5 min, 100 μM [4]: 41.1%

O=C(O)c1ccc(O)c(O)c1 [protocatechuic acid]
inhibition at 7.5 min, 1 μM [1]: 20.3% | inhibition at 7.5 min, 10 μM [1]: 16.2%

COc1cc(-c2oc3cc(O)cc(O)c3c(=O)c2O)ccc1O [Isorhamnetin]
inhibition at 7.5 min, 1 μM (pH 7.4): 19.6% | inhibition at 7.5 min, 10 μM (pH 7.4): 61.5% | inhibition at 7.5 min, 75 μM (pH 7.4): 65.7%

COc1ccc([C@@H]2CC(=O)c3c(O)cc(O[C@@H]4O[C@H](CO)[C@@H](O)[C@H](O)[C@H]4O[C@@H]4O[C@@H](C)[C@H](O)[C@@H](O)[C@H]4O)cc3O2)cc1 [Poncirin]
inhibition at 7.5 min, 1 μM [1]: 7.76% | inhibition at 7.5 min, 10 μM [1]: 16.3% | inhibition at 7.5 min, 100 μM [1]: 15%

COc1ccc([C@@H]2CC(=O)c3c(O)cc(O)cc3O2)cc1O [Hesperetin]
inhibition at 7.5 min, 1 μM [1]: -3.58% | inhibition at 7.5 min, 10 μM [1]: 29.1%

C=CC(=C)CCC=C(C)C [β-Myrcene]
inhibition at 7.5 min, 1 μM [1]: 24.1% | inhibition at 7.5 min, 10 μM [1]: 16.6% | inhibition at 7.5 min, 100 μM [1]: 29.9%

O=C1c2c(O)cc(O)cc2O[C@H](c2ccc(O)c(O)c2)[C@H]1O [(+)-Taxifolin]
inhibition at 7.5 min, 1 μM [2]: -1.29% | inhibition at 7.5 min, 10 μM [3]: 31.2% | inhibition at 7.5 min, 100 μM [4]: 50.5%

C[C@@H]1O[C@@H](Oc2c(-c3ccc(O)c(O)c3)oc3cc(O)cc(O)c3c2=O)[C@H](O)[C@H](O)[C@H]1O [Quercitrin]
inhibition at 7.5 min, 1 μM (pH 7.4): 24.2% | inhibition at 7.5 min, 10 μM (pH 7.4): 21.1% | inhibition at 7.5 min, 100 μM (pH 7.4): 13.5%

O=C(O)[C@H]1O[C@@H](Oc2cc3oc(-c4ccccc4)cc(=O)c3c(O)c2O)[C@H](O)[C@@H](O)[C@@H]1O [baicalin]
inhibition at 7.5 min, 2.5 μM [1]: -5.36% | inhibition at 7.5 min, 25 μM [1]: 7.77%

COc1cc(O)c2c(=O)cc(-c3ccc(O)cc3)oc2c1 [Genkwanin]
inhibition at 7.5 min, 1 μM [1]: 30.9% | inhibition at 7.5 min, 10 μM [1]: 37.4%

O=c1c(-c2ccc(O)cc2)coc2cc(O)cc(O)c12 [Genistein]
inhibition at 7.5 min, 1 μM [2]: 49.6% | inhibition at 7.5 min, 10 μM [3]: 67.7% | inhibition at 7.5 min, 100 μM [4]: 82.7% | inhibition at 7.5 min, 1 μM (pH 7.4, % inhibition of tolbutamide metabolism in microsomes, 1 μM, reaction time 7.5 minute, n = 3): 49.6% | inhibition at 7.5 min, 100 μM (pH 7.4, % inhibition of tolbutamide metabolism in microsomes, 100 μM, reaction time 7.5 minute, n = 3): 82.7% | inhibition at 7.5 min, 10 μM (pH 7.4, % inhibition of tolbutamide metabolism in microsomes, 10 Mm, reaction time 7.5 minute, n = 3): 67.7% | inhibition at 7.5 min, 1 μM (pH 7.4, % inhibition, 1 μM (low concentration)): 49.6% | inhibition at 7.5 min, 10 μM (pH 7.4, % inhibition, 10 μM (mid concentration)): 67.7% | inhibition at 7.5 min, 100 μM (pH 7.4, % inhibition, 100 μM (high concentration)): 82.7%

O=c1c(O)c(-c2cc(O)c(O)c(O)c2)oc2cc(O)cc(O)c12 [myricetin]
inhibition at 7.5 min, 1 μM [1]: -3.19% | inhibition at 7.5 min, 10 μM [1]: 10.6% | inhibition at 7.5 min, 100 μM [1]: 88.8%

CC1(C)[C@@H](O[C@H]2O[C@H](C(=O)O)[C@@H](O)[C@H](O)[C@H]2O[C@@H]2O[C@H](C(=O)O)[C@@H](O)[C@H](O)[C@H]2O)CC[C@]2(C)[C@H]3C(=O)C=C4[C@@H]5C[C@@](C)(C(=O)O)CC[C@]5(C)CC[C@@]4(C)[C@]3(C)CC[C@@H]12 [glycyrrhizin]
inhibition at 7.5 min, 1 μM [1]: 5.14% | inhibition at 7.5 min, 10 μM [1]: 2.23% | inhibition at 7.5 min, 100 μM [1]: 4.87%

O=c1c(-c2ccc(O)cc2)coc2cc(O)ccc12 [Daidzein]
inhibition at 7.5 min, 1 μM [1]: 1.35% | inhibition at 7.5 min, 10 μM [1]: 13.4% | inhibition at 7.5 min, 25 μM [1]: 15.7%
